Measured values from patent US20170190671A1, “BIS(ARYL)CATECHOL DERIVATIVES AS HERBICIDES” (E I DU PONT DE NEMOURS AND COMPANY, priority 2014, published 2017).

Tests used:
Assay in all cases: Test C postemergence
Assay type in all cases: in vivo
[1] = system: Italian ryegrass (Lolium multiflorum); settings: Lolium multiflorum, post-emergence, 336 h, Postemergence, scale 0 to 100, read-out: Plant response rating, Ryegrass, Italian
In short: (§1)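 After preemergence treatment of seeds in loam-sand soil or foliar treatment at the 1- to 4-leaf stage of plants in peat/vermiculite medium, pots were kept 13-15 days in the greenhouse. Each was then scored visually, 0 meaning no effect and 100 complete control.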

[2] = system: barnyardgrass (Echinochloa crus-galli); settings: Echinochloa crus-galli, post-emergence, Postemergence, scale 0 to 100, read-out: Plant response rating, Barnyardgrass
In short: as §1

corn (Zea mays) = settings: Zea mays, post-emergence, 336 h, Postemergence, scale 0 to 100
In short: as §1

[3] = system: galium (catchweed bedstraw, Galium aparine); settings: Galium, post-emergence, 336 h, Postemergence, scale 0 to 100, read-out: Plant response rating, Galium
In short: as §1

[4] = system: johnsongrass (Sorghum halepense); settings: Sorghum halepense, post-emergence, 336 h, Postemergence, scale 0 to 100, read-out: Plant response rating, Johnsongrass
In short: as §1

kochia (Kochia scoparia) = settings: Bassia scoparia, post-emergence, Postemergence, scale 0 to 100, read-out: Plant response rating, Kochia
In short: as §1

[5] = system: large (Lg) crabgrass (Digitaria sanguinalis); settings: Digitaria sanguinalis, post-emergence, 336 h, Postemergence, scale 0 to 100, read-out: Plant response rating, Crabgrass, Large
In short: as §1

[6] = system: morningglory (Ipomoea coccinea); settings: Ipomoea, post-emergence, 336 h, Postemergence, scale 0 to 100, read-out: Plant response rating, Morningglory
In short: as §1

[7] = system: oilseed rape (Brassica napus); settings: Brassica napus, post-emergence, Postemergence, scale 0 to 100, read-out: Plant response rating, Oilseed Rape
In short: as §1

[8] = system: pigweed (Amaranthus retroflexus); settings: Amaranthus retroflexus, post-emergence, 336 h, Postemergence, scale 0 to 100, read-out: Plant response rating, Pigweed
In short: as §1

[9] = system: ragweed (common ragweed, Ambrosia elatior); settings: Ambrosia artemisiifolia, post-emergence, 336 h, Postemergence, scale 0 to 100, read-out: Plant response rating, Ragweed
In short: as §1

soybean (Glycine max) = settings: Glycine max, post-emergence, Postemergence, scale 0 to 100, read-out: Plant response rating, Soybean
In short: as §1

[10] = system: waterhemp (common waterhemp, Amaranthus rudis); settings: Amaranthus tuberculatus, post-emergence, Postemergence, scale 0 to 100, read-out: Plant response rating, Waterhemp
In short: as §1

wild oat (Avena fatua) = settings: Avena fatua, post-emergence, Postemergence, scale 0 to 100, read-out: Plant response rating, Oat, Wild
In short: as §1

[11] = system: winter wheat (Triticum aestivum); settings: Triticum aestivum, post-emergence, 336 h, Postemergence, scale 0 to 100, read-out: Plant response rating, Wheat
In short: as §1

## N#Cc1cccc(Oc2ncc(Cl)cn2)c1Oc1ncc(Cl)cn1 [Compound 3, 2,3-bis[(5-chloro-2-pyrimidinyl)oxy]benzonitrile]
[1]; 31 g ai/ha
  pest or weed control at 31 g/ha: 5%
[1]; 62 g ai/ha
  pest or weed control at 62 g/ha: 5%
[1]; 125 g ai/ha
  pest or weed control at 125 g/ha: 5%
[1]; 250 g ai/ha
  pest or weed control at 250 g/ha: 35%
[2]; 31 g ai/ha
  pest or weed control at 31 g/ha: 5%
[2]; 62 g ai/ha
  pest or weed control at 62 g/ha: 10%
[2]; 125 g ai/ha
  pest or weed control at 125 g/ha: 20%
[2]; 250 g ai/ha
  pest or weed control at 250 g/ha: 60%
Corn (Zea mays); 31 g ai/ha
  Corn plant response rating (crop injury, 0 = no effect, 100 = complete kill) at 31 g/ha: 10%
Corn (Zea mays); 62 g ai/ha
  Corn plant response rating (crop injury, 0 = no effect, 100 = complete kill) at 62 g/ha: 35%
Corn (Zea mays); 250 g ai/ha
  Corn plant response rating (crop injury, 0 = no effect, 100 = complete kill) at 250 g/ha: 75%
[3]; 31 g ai/ha
  pest or weed control at 31 g/ha: 50%
[3]; 62 g ai/ha
  pest or weed control at 62 g/ha: 70%
[3]; 125 g ai/ha
  pest or weed control at 125 g/ha: 95%
[3]; 250 g ai/ha
  pest or weed control at 250 g/ha: 95%
[4]; 31 g ai/ha
  pest or weed control at 31 g/ha: 15%
[4]; 62 g ai/ha
  pest or weed control at 62 g/ha: 15%
[4]; 125 g ai/ha
  pest or weed control at 125 g/ha: 15%
[4]; 250 g ai/ha
  pest or weed control at 250 g/ha: 50%
Kochia (Kochia scoparia); 31 g ai/ha
  pest or weed control at 31 g/ha: 90%
Kochia (Kochia scoparia); 62 g ai/ha
  pest or weed control at 62 g/ha: 90%
Kochia (Kochia scoparia); 125 g ai/ha
  pest or weed control at 125 g/ha: 95%
Kochia (Kochia scoparia); 250 g ai/ha
  pest or weed control at 250 g/ha: 95%
[5]; 31 g ai/ha
  pest or weed control at 31 g/ha: 10%
[5]; 62 g ai/ha
  pest or weed control at 62 g/ha: 10%
[5]; 125 g ai/ha
  pest or weed control at 125 g/ha: 15%
[5]; 250 g ai/ha
  pest or weed control at 250 g/ha: 85%
[6]; 31 g ai/ha
  pest or weed control at 31 g/ha: 85%
[6]; 62 g ai/ha
  pest or weed control at 62 g/ha: 90%
[6]; 125 g ai/ha
  pest or weed control at 125 g/ha: 90%
[6]; 250 g ai/ha
  pest or weed control at 250 g/ha: 98%
[7]; 31 g ai/ha
  plant injury at 31 g/ha: 50%
[7]; 62 g ai/ha
  plant injury at 62 g/ha: 60%
[7]; 125 g ai/ha
  plant injury at 125 g/ha: 70%
[7]; 250 g ai/ha
  plant injury at 250 g/ha: 85%
[8]; 31 g ai/ha
  pest or weed control at 31 g/ha: 75%
[8]; 62 g ai/ha
  pest or weed control at 62 g/ha: 80%
[8]; 125 g ai/ha
  pest or weed control at 125 g/ha: 90%
[8]; 250 g ai/ha
  pest or weed control at 250 g/ha: 100%
[9]; 31 g ai/ha
  pest or weed control at 31 g/ha: 50%
[9]; 62 g ai/ha
  pest or weed control at 62 g/ha: 55%
[9]; 125 g ai/ha
  pest or weed control at 125 g/ha: 60%
[9]; 250 g ai/ha
  pest or weed control at 250 g/ha: 85%
Soybean (Glycine max); 31 g ai/ha
  plant injury at 31 g/ha: 85%
Soybean (Glycine max); 62 g ai/ha
  plant injury at 62 g/ha: 90%
Soybean (Glycine max); 125 g ai/ha
  plant injury at 125 g/ha: 95%
Soybean (Glycine max); 250 g ai/ha
  plant injury at 250 g/ha: 95%
[10]; 31 g ai/ha
  pest or weed control at 31 g/ha: 75%
[10]; 62 g ai/ha
  pest or weed control at 62 g/ha: 75%
[10]; 125 g ai/ha
  pest or weed control at 125 g/ha: 85%
[10]; 250 g ai/ha
  pest or weed control at 250 g/ha: 98%
Wild oat (Avena fatua); 31 g ai/ha
  pest or weed control at 31 g/ha: 15%
Wild oat (Avena fatua); 62 g ai/ha
  pest or weed control at 62 g/ha: 30%
Wild oat (Avena fatua); 125 g ai/ha
  pest or weed control at 125 g/ha: 35%
Wild oat (Avena fatua); 250 g ai/ha
  pest or weed control at 250 g/ha: 35%
[11]; 31 g ai/ha
  plant injury at 31 g/ha: 0%
[11]; 62 g ai/ha
  plant injury at 62 g/ha: 0%
[11]; 125 g ai/ha
  plant injury at 125 g/ha: 10%
[11]; 250 g ai/ha
  plant injury at 250 g/ha: 15%
